Holding throughout (assay type): in vivo
Test [1] concerns Japanese millet (Echinochloa utilis Ohwi et Yabuno). Description: Test Example 2: soil treatment, Japanese millet, visual growth inhibition rate. The note with it: soil treatment the day after sowing, 27th day after treatment. An excerpt:
When the herbicidal activity in a case where two active ingredients are combined, is larger than the simple sum of the respective herbicidal activities of the two active ingredients (the expected activity), it is called a synergistic effect. The activity expected by the combination of two active ingredients can be calculated as follows (Colby S. R., “Weed”, vol. 15, p. 20-22, 1967). E1=α+β−(α×β÷100) On the 22nd day after treatment, the state of growth of the common cocklebur was visually observed to determine the growth inhibition rate in accordance with the following evaluation standard. The growth inhibition rate (%) (measured value) and the growth inhibition rate (%) (calculated value) calculated by the Colby's formula are shown in Table 1. […] Upland field soil was put into a 1/1,000,000 ha pot, and seeds of Japanese millet (Echinochloa utilis Ohwi et Yabuno) were sown. […] On the 27th day after treatment, the state of growth of the Japanese millet was visually observed to determine the growth inhibition rate.

Test [2] concerns sunn-hemp (Crotalaria juncea L.). The test is described as follows: Test Example 4: soil treatment, sunn-hemp, visual growth inhibition rate. The note with it: soil treatment the day after sowing, 28th day after treatment. An excerpt:
In a case where three active ingredients are combined, the activity can be similarly calculated as follows. E2=(α+β+γ)−(αβ+αγ+βγ)/100+(αβγ)/10000 where α: growth inhibition rate when treated with x (g/ha) of herbicide X,
Growth inhibition rate (%)=0 (equivalent to the non-treated area) to 100 (complete kill)
Upland field soil was put into a 1/300,000 ha pot, and seeds of sunn-hemp (Crotalaria juncea L.) were sown.

The test system of test [3] is summergrass (Digitaria ciliaris (Retz.) Koel). Description: Test Example 5: foliar treatment of summergrass in 7 to 9-leaf stage, visual growth inhibition rate. The note with it: foliar treatment at 7 to 9-leaf stage, 14th day after treatment. An excerpt:
When the herbicidal activity in a case where two active ingredients are combined, is larger than the simple sum of the respective herbicidal activities of the two active ingredients (the expected activity), it is called a synergistic effect. The activity expected by the combination of two active ingredients can be calculated as follows (Colby S. R., “Weed”, vol. 15, p. 20-22, 1967). E1=α+β-(α×β÷100) On the 22nd day after treatment, the state of growth of the common cocklebur was visually observed to determine the growth inhibition rate in accordance with the following evaluation standard. The growth inhibition rate (%) (measured value) and the growth inhibition rate (%) (calculated value) calculated by the Colby's formula are shown in Table 1. […] Upland field soil was put into a 1/1,000,000 ha pot, and seeds of summergrass (Digitaria ciliaris (Retz.) Koel) were sown. When the summergrass reached 7 to 9-leaf stage, predetermined amounts of […] Dual Gold (tradename) were diluted with water (corresponding to 300 L/ha) and applied for foliar treatment by a small sprayer. On the 14th day after treatment, the state of growth of the summergrass was visually observed to determine the growth inhibition rate.

Test [4] has as its system Japanese bristlegrass (Setaria faberi Herrm). Description: Test Example 7: soil treatment, residual activity, Japanese bristlegrass sown 14 days after treatment. The note with it: seeds sown on the 14th day after treatment, 21st day after sowing. From the text:
When the herbicidal activity in a case where two active ingredients are combined, is larger than the simple sum of the respective herbicidal activities of the two active ingredients (the expected activity), it is called a synergistic effect. The activity expected by the combination of two active ingredients can be calculated as follows (Colby S. R., “Weed”, vol. 15, p. 20-22, 1967). E1=α+β-(α×β÷100) On the 22nd day after treatment, the state of growth of the common cocklebur was visually observed to determine the growth inhibition rate in accordance with the following evaluation standard. The growth inhibition rate (%) (measured value) and the growth inhibition rate (%) (calculated value) calculated by the Colby's formula are shown in Table 1. […] Upland field soil was put into a 1/500,000 ha pot, and on the next day, predetermined amounts of […] Dual Gold (tradename) were diluted with water (corresponding to 300 L/ha) and applied for soil treatment by a small sprayer. On the 14th day after treatment, seeds of Japanese bristlegrass (Setaria faberi Herrm) and spotted knotweed, (Polygonum lapathifolium L.) were sown. On the 21st day after sowing, the state of growth of the Japanese bristlegrass and the spotted knotweed was visually observed to determined the growth inhibition rate.

In the case of `COc1cc(OC)nc(NC(=O)NS(=O)(=O)c2ncccc2C(=O)N(C)C)n1` [Nicosulfuron, 2-(4,6-dimethoxypyrimidin-2-ylcarbamoylsulfamoyl)-N,N-dimethylnicotinamide], the inhibition at 15 g/ha in test [1] (dose 15 g/ha, read-out: Growth inhibition rate (%) of Japanese millet, Measured value) came to 5%; in test [3] (Digitaria ciliaris, dose 15 g/ha, read-out: Growth inhibition rate (%) of summergrass, Measured value), 53%. Moreover, the inhibition at 10 g/ha in test [2] (Crotalaria juncea, dose 10 g/ha, read-out: Growth inhibition rate (%) of sunn-hemp, Measured value) was 0%. The inhibition at 100 g/ha in test [2] (Crotalaria juncea, dose 100 g/ha, read-out: Growth inhibition rate (%) of sunn-hemp, Measured value) was 0%; in test [4] (Setaria faberi, dose 100 g/ha, read-out: Growth inhibition rate (%) of Japanese bristlegrass, Measured value), 33%.

Regarding “a mixture of (aRS,1S)-2-chloro-6′-ethyl-N-(2-methoxy-1-methylethyl)aceto-o-toluidide (80 to 100%) and (aRS,1R)-2-chloro-6′-ethyl-N-(2-methoxy-1-methylethyl)aceto-o-toluidide (20 to 0%) [S-metolachlor]”, the “Growth inhibition rate (%) of Japanese millet, Measured value” in test [1] (dose 500 g/ha) is given as 80%. Also, the “Growth inhibition rate (%) of sunn-hemp, Measured value” in test [2] (dose 250 g/ha) and in test [2] (dose 2000 g/ha) was 0% each time. In addition, the “Growth inhibition rate (%) of summergrass, Measured value” in test [3] (dose 500 g/ha) and in test [3] (dose 2000 g/ha) was 0% each time. In addition, the “Growth inhibition rate (%) of Japanese bristlegrass, Measured value” in test [4] (dose 250 g/ha) stood at 10%.

(Values after US10092002B2, “Herbicidal composition comprising nicosulfuron or its salt and S -metolachlor or its salt” (ISHIHARA SANGYO KAISHA, LTD., priority 2011, dated 2018).)
